{"source": "patent US20060128695A1", "about": "“Cyclic nucleotide phosphodiesterase inhibitors, preparation and uses” (NEURO3D, priority 2002, published 2006)", "format_in_all_cases": "biochemical, bovine", "key": {"PDE3": {"molecular_target": "T1, PDE3 (Bos taurus, UniProt A0A3Q1M1E8)", "T1 sequence (A0A3Q1M1E8 1-1126)": "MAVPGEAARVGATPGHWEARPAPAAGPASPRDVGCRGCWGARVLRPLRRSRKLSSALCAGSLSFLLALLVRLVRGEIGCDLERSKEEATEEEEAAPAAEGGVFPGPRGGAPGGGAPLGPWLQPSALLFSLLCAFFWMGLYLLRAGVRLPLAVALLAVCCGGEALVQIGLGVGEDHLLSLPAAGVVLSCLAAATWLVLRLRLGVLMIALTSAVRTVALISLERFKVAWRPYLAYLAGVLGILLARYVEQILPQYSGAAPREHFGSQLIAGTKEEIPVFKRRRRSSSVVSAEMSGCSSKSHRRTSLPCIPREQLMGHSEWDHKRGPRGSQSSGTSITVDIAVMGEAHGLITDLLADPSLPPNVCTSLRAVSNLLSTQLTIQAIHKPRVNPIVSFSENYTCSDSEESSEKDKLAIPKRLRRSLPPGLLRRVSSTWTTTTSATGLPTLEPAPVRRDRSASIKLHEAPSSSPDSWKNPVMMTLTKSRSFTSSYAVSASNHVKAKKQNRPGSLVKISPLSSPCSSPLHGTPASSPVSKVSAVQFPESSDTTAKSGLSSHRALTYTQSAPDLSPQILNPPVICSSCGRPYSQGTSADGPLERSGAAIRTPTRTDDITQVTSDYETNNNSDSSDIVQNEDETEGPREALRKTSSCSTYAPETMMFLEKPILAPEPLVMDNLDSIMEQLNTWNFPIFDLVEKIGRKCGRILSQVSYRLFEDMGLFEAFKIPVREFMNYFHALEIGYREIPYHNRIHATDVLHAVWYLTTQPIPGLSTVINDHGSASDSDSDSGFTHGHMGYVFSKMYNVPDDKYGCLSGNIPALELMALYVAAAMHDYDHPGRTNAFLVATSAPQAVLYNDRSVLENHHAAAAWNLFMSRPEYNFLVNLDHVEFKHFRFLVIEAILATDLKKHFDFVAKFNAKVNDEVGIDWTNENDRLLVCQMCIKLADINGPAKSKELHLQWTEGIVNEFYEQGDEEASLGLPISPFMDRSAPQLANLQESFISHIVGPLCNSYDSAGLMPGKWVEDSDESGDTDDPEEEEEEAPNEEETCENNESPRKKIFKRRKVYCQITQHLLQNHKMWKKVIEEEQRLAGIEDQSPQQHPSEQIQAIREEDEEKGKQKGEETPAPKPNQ", "experiment": "Selectivity: inhibition of PDE3, radioenzymatic phosphodiesterase assay", "conditions": "10 μM test compound; vascular smooth muscle; read-out: PDE3 percentage inhibition at 10 μM", "description": "(§1) A 3 g segment of bovine aortic media cut into pieces with scissors was homogenized with an ultra-turrax then a potter glass/glass homogenizer in 7 volumes by weight of buffer A containing a protease inhibitor cocktail (20 mM Tris-HCl, 0.25 M saccharose, 2 mM magnesium acetate, 1 mM dithiothreitol, 5 mM EGTA, 2000 U/ml aprotinin, 10 mg/l leupeptin and 10 mg/l soya trypsic inhibitor). The homogenizate was centrifuged at 105,000 g for 1 hour. The supernatant was loaded on a DEAE-Sephacel column (15 x 1.6 cm) pre-equilibrated with buffer B (buffer A without the saccharose, EGTA and protease inhibitors). The column was washed until there was no detectable absorption at 280 nm, then eluted with a linear gradient of NaCl (0-0.5 M) in buffer B. 3-ml fractions were collected and enzyme activity was determined under the conditions described hereinbelow to localize the different enzymes PDE1, PDE3, PDE4 and PDE5 which were aliquoted and frozen at −80° C. (Lugnier et al., Biochem. Phamacol., 1986, 35: 1746-1751). PDE2 was prepared from bovine endothelial cells by the same methods (Lugnier and Schini, Biochem. Pharmacol., 1990, 39: 75-84).\n(§2) Cyclic nucleotide phosphodiesterase activity was determined by a radioenzymatic method using tritium-labelled cyclic GMP or AMP (1 μM) as substrate (Lugnier et al., 1986). ^3H-labelled adenosine or guanosine monophosphate formed by hydrolysis of the radiolabelled cyclic nucleotide was then converted to ^3H-labelled adenosine or guanosine in a second reaction with […] in excess. The nucleoside formed was separated from the nucleotides by anion exchange chromatography. Nucleoside radioactivity was determined by liquid scintillation counting. […]\n(§3) The activity of the compounds was evaluated on other phosphodiesterase isoforms, particularly basal state or calmodulin-activated PDEl from vascular smooth muscle, PDE3, PDE4 and PDE5 from vascular smooth muscle.\n(§4) The results obtained are presented in Tables 1 and 2 hereinbelow and are expressed as the percentage inhibition of enzymatic activity produced by […] of the test compound."}, "PDE1": {"test_system": "PDE1", "experiment": "Selectivity: inhibition of PDE1, radioenzymatic phosphodiesterase assay", "conditions": "10 μM test compound; vascular smooth muscle", "description": "as §1, §2, §3, §4"}, "PDE2": {"molecular_target": "T2, PDE2 (Bos taurus, UniProt P14099)", "T2 construct": "PDE2 was prepared from bovine endothelial cells by the same methods; endogenous in cells; host or cells: bovine endothelial cells", "T2 sequence (P14099 1-921)": "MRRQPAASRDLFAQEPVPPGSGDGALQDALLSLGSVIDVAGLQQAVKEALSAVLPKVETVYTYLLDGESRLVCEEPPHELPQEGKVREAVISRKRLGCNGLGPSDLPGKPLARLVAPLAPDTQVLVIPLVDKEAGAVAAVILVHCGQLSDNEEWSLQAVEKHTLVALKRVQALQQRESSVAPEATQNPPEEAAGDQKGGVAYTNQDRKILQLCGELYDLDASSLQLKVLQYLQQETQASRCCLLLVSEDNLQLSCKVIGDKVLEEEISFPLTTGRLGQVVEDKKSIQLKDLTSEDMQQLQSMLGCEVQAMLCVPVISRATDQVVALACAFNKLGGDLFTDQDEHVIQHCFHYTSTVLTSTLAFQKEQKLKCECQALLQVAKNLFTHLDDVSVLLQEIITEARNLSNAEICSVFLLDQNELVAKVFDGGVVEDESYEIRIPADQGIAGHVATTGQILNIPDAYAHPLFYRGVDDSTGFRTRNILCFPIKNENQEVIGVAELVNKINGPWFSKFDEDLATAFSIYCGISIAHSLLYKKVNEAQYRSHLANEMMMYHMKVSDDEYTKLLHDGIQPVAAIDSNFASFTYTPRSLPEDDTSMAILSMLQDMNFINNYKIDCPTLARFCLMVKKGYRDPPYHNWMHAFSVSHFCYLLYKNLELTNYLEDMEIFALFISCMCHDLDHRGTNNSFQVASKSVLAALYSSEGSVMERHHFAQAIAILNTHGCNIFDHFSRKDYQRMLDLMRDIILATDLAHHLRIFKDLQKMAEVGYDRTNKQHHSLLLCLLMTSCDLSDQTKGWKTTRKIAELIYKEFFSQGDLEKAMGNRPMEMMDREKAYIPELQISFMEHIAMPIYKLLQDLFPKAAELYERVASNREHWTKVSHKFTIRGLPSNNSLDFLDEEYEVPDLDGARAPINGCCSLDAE", "experiment": "Inhibition of PDE2, radioenzymatic phosphodiesterase assay"}, "PDE4": {"test_system": "PDE4", "experiment": "Selectivity: inhibition of PDE4, radioenzymatic phosphodiesterase assay", "conditions": "10 μM test compound; vascular smooth muscle", "description": "as §1\n(§5) Cyclic nucleotide phosphodiesterase activity was determined by a radioenzymatic method using tritium-labelled cyclic GMP or AMP (1 μM) as substrate (Lugnier et al., 1986). ^3H-labelled adenosine or guanosine monophosphate formed by hydrolysis of the radiolabelled cyclic nucleotide was then converted to ^3H-labelled adenosine or guanosine in a second reaction with […] in excess. The nucleoside formed was separated from the nucleotides by anion exchange chromatography. Nucleoside radioactivity was determined by liquid scintillation counting. Enzymatic incubations were carried out under conditions allowing no more than 15% hydrolysis of the substrate; each point was performed in duplicate.\nas §3, §4"}, "PDE5": {"molecular_target": "T3, PDE5 (Bos taurus, UniProt Q28156)", "T3 construct": "localize the different enzymes PDE1, PDE3, PDE4 and PDE5 which were aliquoted and frozen; from tissue; host or cells: bovine aortic media (vascular smooth muscle)", "experiment": "Selectivity: inhibition of PDE5, radioenzymatic phosphodiesterase assay", "conditions": "10 μM test compound; vascular smooth muscle; read-out: PDE5 percentage inhibition at 10 μM", "description": "as §1, §5, §3, §4"}}}
{"compound": "COc1cc2c(cc1OC)N(C)C(=O)CN=C2c1cccnc1", "note": "[Compound 17b, 7,8-dimethoxy-1-methyl-5-(3-pyridyl)-1,3-dihydro-1,4-benzodiazepin-2-one]", "values": [{"measurement": "inhibition at 10 µM", "setting": "PDE3", "result": 36, "unit": "%"}, {"measurement": "PDE1 percentage inhibition at 10 μM", "setting": "PDE1", "result": 10, "unit": "%"}, {"measurement": "IC50", "setting": "PDE2", "result": 1.5, "unit": "µM"}, {"measurement": "PDE4 percentage inhibition at 10 μM", "setting": "PDE4", "result": 8, "unit": "%"}, {"measurement": "inhibition at 10 µM", "setting": "PDE5", "result": 14, "unit": "%"}]}
{"compound": "COc1cc2c(cc1OC)N(C)C(=O)CN=C2c1cccc(C(F)(F)F)c1", "note": "[Compound 4p, 7,8-dimethoxy-1-methyl-[5-(3-trifluoromethyl)phenyl]-1,3-dihydro-2H-1,4-benzodiazepin-2-one]", "values": [{"measurement": "inhibition at 10 µM", "setting": "PDE3", "result": 58, "unit": "%"}, {"measurement": "PDE1 percentage inhibition at 10 μM", "setting": "PDE1", "result": 25, "unit": "%"}, {"measurement": "IC50", "setting": "PDE2", "result": 1.8, "unit": "µM"}, {"measurement": "PDE4 percentage inhibition at 10 μM", "setting": "PDE4", "result": 19, "unit": "%"}, {"measurement": "inhibition at 10 µM", "setting": "PDE5", "result": 26, "unit": "%"}]}
